{"source": "ChEMBL document CHEMBL5356977", "about": "“Exploration of macrocyclic peptide binders to the extracellular CRD domain of human receptor tyrosine kinase-like orphan receptor 1 (ROR1)” (Bioorg Med Chem Lett, 2024)", "key": {"[1]": {"target": "T1, Inactive tyrosine-protein kinase transmembrane receptor ROR1 (Homo sapiens, UniProt Q01973)", "T1 sequence (Q01973 whole entry)": "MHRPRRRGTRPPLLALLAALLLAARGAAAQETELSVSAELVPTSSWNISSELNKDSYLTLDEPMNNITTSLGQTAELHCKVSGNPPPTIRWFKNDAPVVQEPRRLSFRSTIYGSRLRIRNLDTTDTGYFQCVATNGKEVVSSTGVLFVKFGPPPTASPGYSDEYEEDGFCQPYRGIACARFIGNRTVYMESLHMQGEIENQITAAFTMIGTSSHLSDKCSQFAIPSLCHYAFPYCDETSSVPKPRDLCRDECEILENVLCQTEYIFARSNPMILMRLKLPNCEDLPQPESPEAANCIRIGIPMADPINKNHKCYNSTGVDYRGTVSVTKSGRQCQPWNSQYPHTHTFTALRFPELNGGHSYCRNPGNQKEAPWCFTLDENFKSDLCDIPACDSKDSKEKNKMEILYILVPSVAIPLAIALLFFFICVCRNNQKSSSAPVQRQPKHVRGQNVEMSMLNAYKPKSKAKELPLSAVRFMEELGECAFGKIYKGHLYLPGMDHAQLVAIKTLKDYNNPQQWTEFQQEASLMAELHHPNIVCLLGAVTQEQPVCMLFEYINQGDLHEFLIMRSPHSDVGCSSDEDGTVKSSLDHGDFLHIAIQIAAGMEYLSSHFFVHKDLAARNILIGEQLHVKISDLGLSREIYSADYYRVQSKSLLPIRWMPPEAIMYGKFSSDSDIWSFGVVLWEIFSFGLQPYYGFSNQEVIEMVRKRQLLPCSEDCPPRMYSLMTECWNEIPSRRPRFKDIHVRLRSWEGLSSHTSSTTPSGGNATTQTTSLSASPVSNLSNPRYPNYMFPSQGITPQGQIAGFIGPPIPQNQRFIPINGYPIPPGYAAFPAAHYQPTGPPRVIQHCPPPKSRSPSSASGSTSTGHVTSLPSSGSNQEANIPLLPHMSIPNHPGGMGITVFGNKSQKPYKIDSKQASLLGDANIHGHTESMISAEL", "test": "Binding affinity to full length human His-tagged ROR1 (937 residues ) assessed as dissociation constant by SPR analysis"}, "[2]": {"target": "Tyrosine-protein kinase transmembrane receptor ROR2 (Homo sapiens, UniProt Q01974)", "sequence (Q01974 whole entry)": "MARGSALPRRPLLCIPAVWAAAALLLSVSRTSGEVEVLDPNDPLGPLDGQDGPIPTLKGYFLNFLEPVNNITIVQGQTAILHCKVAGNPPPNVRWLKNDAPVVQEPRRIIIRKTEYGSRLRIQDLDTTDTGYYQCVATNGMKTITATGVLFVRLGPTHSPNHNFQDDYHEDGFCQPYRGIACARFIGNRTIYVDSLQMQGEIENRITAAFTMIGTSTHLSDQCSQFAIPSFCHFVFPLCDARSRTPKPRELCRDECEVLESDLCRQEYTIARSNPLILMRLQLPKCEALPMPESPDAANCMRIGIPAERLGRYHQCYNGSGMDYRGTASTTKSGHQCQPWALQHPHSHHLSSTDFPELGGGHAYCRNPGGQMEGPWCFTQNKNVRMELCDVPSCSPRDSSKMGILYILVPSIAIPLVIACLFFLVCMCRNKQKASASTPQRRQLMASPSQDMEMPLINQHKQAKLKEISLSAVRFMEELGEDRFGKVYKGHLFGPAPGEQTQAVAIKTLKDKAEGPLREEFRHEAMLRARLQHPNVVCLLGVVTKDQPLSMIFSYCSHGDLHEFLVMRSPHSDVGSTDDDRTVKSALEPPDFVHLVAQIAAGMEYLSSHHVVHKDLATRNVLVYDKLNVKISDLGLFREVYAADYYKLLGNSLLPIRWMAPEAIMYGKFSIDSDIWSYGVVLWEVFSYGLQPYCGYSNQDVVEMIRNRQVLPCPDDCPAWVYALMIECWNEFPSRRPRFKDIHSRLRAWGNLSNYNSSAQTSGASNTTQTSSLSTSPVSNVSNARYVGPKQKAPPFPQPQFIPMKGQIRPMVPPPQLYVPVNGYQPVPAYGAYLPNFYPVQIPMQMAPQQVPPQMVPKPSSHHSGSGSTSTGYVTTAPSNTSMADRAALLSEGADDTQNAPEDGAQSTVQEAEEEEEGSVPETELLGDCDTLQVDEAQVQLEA", "test": "Binding affinity to full length human His-tagged ROR2 (943 residues ) assessed as dissociation constant by SPR analysis"}, "[3]": {"target": "T1, Inactive tyrosine-protein kinase transmembrane receptor ROR1", "test": "Induction of ROR1 internalization in human 786-0 cells at 4 to 37 degreeC", "type": "cell-based"}, "[4]": {"test": "[…] stability in mouse serum assessed as half life", "type": "ADME, cell-free"}, "[5]": {"test": "Stability in human serum assessed as half life", "type": "ADME, cell-free"}, "[6]": {"test": "Stability in mouse serum assessed as half life", "type": "ADME, cell-free"}, "[7]": {"target": "T1, Inactive tyrosine-protein kinase transmembrane receptor ROR1", "test": "Binding affinity to human ROR1 harbouring IGt2 domain at 100 nM relative to control"}, "[8]": {"target": "T1, Inactive tyrosine-protein kinase transmembrane receptor ROR1", "test": "Binding affinity to human ROR1 harbouring CRD domain at 100 nM relative to control"}, "[9]": {"target": "T1, Inactive tyrosine-protein kinase transmembrane receptor ROR1", "test": "Binding affinity to human ROR1 expressed in HEK293 cells by cell based assay"}, "[10]": {"target": "T1, Inactive tyrosine-protein kinase transmembrane receptor ROR1", "test": "Induction of ROR1 internalization in human 786-0", "type": "cell-based"}, "[11]": {"target": "T1, Inactive tyrosine-protein kinase transmembrane receptor ROR1", "test": "Induction of ROR1 internalization in human MDA-MB-231", "type": "cell-based"}, "[12]": {"target": "T1, Inactive tyrosine-protein kinase transmembrane receptor ROR1", "test": "Binding affinity to ROR1 (unknown origin)"}, "786-0": {"tested_on": "786-0", "test": "Antiproliferative activity in human 786-0 cells", "type": "functional, cell-based"}, "ASPC1": {"tested_on": "ASPC1", "test": "Antiproliferative activity in human ASPC1 cells", "type": "functional, cell-based"}, "JeKo-1": {"tested_on": "JeKo-1", "test": "Antiproliferative activity in human JeKo-1 cells", "type": "functional, cell-based"}, "HEK293": {"tested_on": "HEK293", "test": "Antiproliferative activity in HEK293 cells harbouring ROR1", "type": "toxicity, cell-based", "conditions": "Homo sapiens"}, "[13]": {"test": "Proteolytic stability in mouse serum assessed as half life", "type": "ADME, cell-free"}, "MIA PaCa-2": {"tested_on": "MIA PaCa-2", "test": "Induction of apoptosis in human MIA PaCa-2 cells assessed as activation of caspase3/7", "type": "functional, cell-based"}}, "note": "Activity calls are given as the source filed them. The calls are words filed in the database; no cut-off is given here. Numbered stars: 1 amine (or outer) side, 2 acyl side, 3 side chain; on linkers, the order of the positions; unused ones are H or OH. Bridge positions count the residues as written; N and C are the ends. Square brackets hold non-standard residues; d marks the D form. Peptide text beside a SMILES is read from it. * marks the point of attachment. X2 = CCCN(C(=O)[C@@H](NC(=O)[C@H]1CCCCN1C)[C@@H](C)CC)[C@H](C[C@@H](OC(C)=O)c1nc(C(=O)N[C@@H](Cc2ccc(NC(=O)[C@H](CCCNC(N)=O)NC(=O)[C@@H](NC(=O)CCCCCN3C(=O)CC(*)C3=O)C(C)C)cc2)C[C@H](C)C(=O)O)cs1)C(C)C; Bip = N[C@@H](Cc1ccc(-c2ccccc2)cc1)C(=O)O; X1 = CN([C@@H](CC(N)O)C(=O)[*:2])[*:1]; NMeF = CN[C@@H](Cc1ccccc1)C(=O)O; Hpg = N[C@H](C(=O)O)c1ccc(O)cc1; Sar = CNCC(=O)O"}
{"smiles": "CN1CC(=O)N[C@@H](CO)C(=O)N[C@@H](Cc2ccc(-c3ccccc3)cc2)C(=O)NCC(=O)N[C@@H](CCCNC(=N)N)C(=O)N[C@@H](CCCNC(=N)N)C(=O)N[C@@H](CCCNC(=N)N)C(=O)NCC(=O)N[C@H](C(=O)NCC(N)=O)CSCC(=O)N[C@@H](Cc2ccccc2)C(=O)N[C@@H](Cc2ccc(O)cc2)C1=O", "note": "({CH2CO}-FY[Sar]S[Bip]GRRRGCG-NH2; thioether N-11)", "values": [{"measurement": "Kd", "setting": "[1]", "value": 3, "unit": "nM"}, {"measurement": "Kd", "setting": "[2]", "value": "> 100", "unit": "nM"}, {"measurement": "Activity", "setting": "[3]", "value": "inactive"}, {"measurement": "half-life", "setting": "[4]", "value": 24, "unit": "h"}, {"measurement": "half-life", "setting": "[5]", "value": 1.1, "unit": "h"}, {"measurement": "half-life", "setting": "[6]", "value": 0.517, "unit": "h"}, {"measurement": "Activity", "setting": "[7]", "value": 125, "unit": "%"}, {"measurement": "Activity", "setting": "[8]", "value": 114, "unit": "%"}]}
{"smiles": "CC(C)C[C@@H]1NC(=O)[C@H](Cc2ccc(O)cc2)NC(=O)[C@H](Cc2c[nH]c3ccccc23)NC(=O)CSC[C@@H](C(=O)NCC(N)=O)NC(=O)[C@H](CC(C)C)NC(=O)[C@H](Cc2ccccc2)N(C)C(=O)[C@H](Cc2ccc(O)cc2)NC(=O)[C@H](Cc2c[nH]c3ccccc23)NC(=O)CNC(=O)[C@H](CO)NC(=O)[C@H](Cc2ccc(O)cc2)NC(=O)[C@H](C(C)C)NC1=O", "note": "({CH2CO}-WYLVYSGWY[NMeF]LCG-NH2; thioether N-12)", "values": [{"measurement": "IC50", "setting": "[9]", "value": 2.2, "unit": "nM"}, {"measurement": "Activity", "setting": "[10]", "value": "Active"}, {"measurement": "Activity", "setting": "[11]", "value": "Active"}]}
{"smiles": "CC(C)C[C@@H]1NC(=O)[C@H](CC(N)O)N(C)C(=O)[C@H](Cc2ccccc2)NC(=O)CNC(=O)[C@H](Cc2ccc(O)cc2)NC(=O)[C@H](Cc2ccccc2)NC(=O)CSC[C@@H](C(N)=O)NC(=O)[C@H](Cc2c[nH]c3ccccc23)NC(=O)[C@H](Cc2ccc(O)cc2)NC1=O", "note": "(stereo partly drawn) ({CH2CO}-FYGF[X1]LYWC-NH2; thioether N-9)", "values": [{"measurement": "Kd", "setting": "[1]", "value": 22, "unit": "nM"}, {"measurement": "Kd", "setting": "[2]", "value": "> 11", "unit": "nM"}, {"measurement": "Activity", "setting": "[3]", "value": "Active"}, {"measurement": "IC50", "setting": "[12]", "value": 66, "unit": "nM"}, {"measurement": "Activity", "setting": "[7]", "value": 75, "unit": "%"}, {"measurement": "Activity", "setting": "[8]", "value": 125, "unit": "%"}]}
{"smiles": "CC[C@H](C)[C@H](NC(=O)[C@H]1CCCCN1C)C(=O)N(COC(=O)CC(C)C)[C@H](C[C@@H](OC(C)=O)c1nc(C(=O)N[C@@H](Cc2ccc(C)cc2)C[C@H](C)C(=O)O)cs1)C(C)C", "note": "[TUBULYSIN]", "values": [{"measurement": "EC50", "setting": "786-0", "value": 0.57, "unit": "nM"}]}
{"smiles": "CCCN(C(=O)[C@@H](NC(=O)[C@H]1CCCCN1C)[C@@H](C)CC)[C@H](C[C@@H](OC(C)=O)c1nc(C(=O)N[C@@H](Cc2ccc(NC(=O)[C@H](CCCNC(N)=O)NC(=O)[C@@H](NC(=O)CCCCCN3C(=O)CC(SC[C@H](NC(=O)CNC(=O)CNC(=O)CNC(=O)CNC(=O)[C@@H]4CSCC(=O)N[C@@H](Cc5ccccc5)C(=O)N[C@@H](Cc5ccc(O)cc5)C(=O)N[C@@H](CC(C)C)C(=O)N[C@@H](C(C)C)C(=O)N[C@@H](Cc5ccc(O)cc5)C(=O)N[C@@H](CO)C(=O)NCC(=O)N[C@@H](Cc5c[nH]c6ccccc56)C(=O)N[C@@H](Cc5ccc(O)cc5)C(=O)N(C)[C@@H](Cc5ccccc5)C(=O)N[C@@H](CC(C)C)C(=O)N4)C(N)=O)C3=O)C(C)C)cc2)C[C@H](C)C(=O)O)cs1)C(C)C", "note": "(stereo partly drawn) ({CH2CO}-FYLVYSGWY[NMeF]LCGGGGC(X2)-NH2; thioether N-12)", "values": [{"measurement": "EC50", "setting": "ASPC1", "value": 145, "unit": "nM"}, {"measurement": "EC50", "setting": "JeKo-1", "value": 334, "unit": "nM"}, {"measurement": "EC50", "setting": "HEK293", "value": 27.3, "unit": "nM"}, {"measurement": "EC50", "setting": "786-0", "value": 154, "unit": "nM"}]}
{"smiles": "CC(C)C[C@@H]1NC(=O)[C@H](Cc2ccc(O)cc2)NC(=O)[C@H](Cc2ccccc2)NC(=O)CSC[C@@H](C(=O)NCC(N)=O)NC(=O)[C@H](CC(C)C)NC(=O)[C@H](Cc2ccccc2)N(C)C(=O)[C@H](Cc2ccc(O)cc2)NC(=O)[C@H](Cc2c[nH]c3ccccc23)NC(=O)CNC(=O)[C@H](CO)NC(=O)[C@H](Cc2ccc(O)cc2)NC(=O)[C@H](C(C)C)NC1=O", "note": "({CH2CO}-FYLVYSGWY[NMeF]LCG-NH2; thioether N-12)", "values": [{"measurement": "Kd", "setting": "[2]", "value": 43, "unit": "nM"}, {"measurement": "Activity", "setting": "[3]", "value": "Active"}, {"measurement": "half-life", "setting": "[13]", "value": "> 24", "unit": "h"}, {"measurement": "half-life", "setting": "[4]", "value": "> 24", "unit": "h"}, {"measurement": "Activity", "setting": "MIA PaCa-2", "value": "inactive"}, {"measurement": "Activity", "setting": "[10]", "value": "Active"}, {"measurement": "Activity", "setting": "[11]", "value": "Active"}, {"measurement": "Activity", "setting": "[7]", "value": 68, "unit": "%"}, {"measurement": "Activity", "setting": "[8]", "value": 104, "unit": "%"}]}
{"smiles": "CC(C)C[C@@H]1NC(=O)[C@H](Cc2ccc(O)cc2)NC(=O)[C@H](Cc2ccccc2)NC(=O)CSC[C@@H](C(=O)NCC(N)=O)NC(=O)[C@H](CC(C)C)NC(=O)[C@H](Cc2ccccc2)N(C)C(=O)[C@H](Cc2ccc(O)cc2)NC(=O)[C@H](Cc2c[nH]c3ccccc23)NC(=O)CNC(=O)[C@H](CC(=O)O)NC(=O)[C@H](Cc2ccc(O)cc2)NC(=O)[C@H](C(C)C)NC1=O", "note": "({CH2CO}-FYLVYDGWY[NMeF]LCG-NH2; thioether N-12)", "values": [{"measurement": "IC50", "setting": "[9]", "value": 14.4, "unit": "nM"}]}
{"smiles": "CC(C)C[C@@H]1NC(=O)[C@H](Cc2ccc(O)cc2)NC(=O)[C@H](Cc2ccccc2)NC(=O)CSC[C@@H](C(=O)NCC(N)=O)NC(=O)[C@H](C(C)C)NC(=O)[C@H](Cc2ccccc2)N(C)C(=O)[C@H](c2ccc(O)cc2)NC(=O)[C@H](Cc2c[nH]c3ccccc23)NC(=O)CNC(=O)[C@H](CC(N)=O)NC(=O)[C@H](Cc2ccc(O)cc2)NC(=O)[C@H](C(C)C)NC1=O", "note": "({CH2CO}-FYLVYNGW[Hpg][NMeF]VCG-NH2; thioether N-12)", "values": [{"measurement": "IC50", "setting": "[9]", "value": 5.3, "unit": "nM"}]}
